# Experimental data published in the supplement of paper PMC10307832.
# Assays:
# Assay in all cases: relative viability (nuclei count vs DMSO), 5 days (fraction); higher = more cells survive
# [1] = compound: COc1cc2nc(N3CCCN(C)CC3)nc(NC3CCN(Cc4ccccc4)CC3)c2cc1OC + CC1(C)CCC(c2ccc(Cl)cc2)=C(CN2CCN(c3ccc(C(=O)NS(=O)(=O)c4ccc(N[C@H](CCN5CCOCC5)CSc5ccccc5)c(S(=O)(=O)C(F)(F)F)c4)cc3)CC2)C1 [Navitoclax] (partner 0.5 µM)
# How it was run: (§1)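 Five library-drug doses in √10 steps were combined with a fixed anchor-drug dose, or a single drug was given alone, by pin tool to lung cancer cell lines in 1536-well plates the day after seeding. Nuclei were stained and counted after 5 days. Relative viability is the nuclei count in treated wells over that in vehicle wells, taken as the median of duplicate plates.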
# [2] = compound: COc1cc2nc(N3CCCN(C)CC3)nc(NC3CCN(Cc4ccccc4)CC3)c2cc1OC + N=C(N)NC(=N)NCCc1ccccc1 [Phenformin] (partner 250 µM)
# How it was run: as §1
# [3] = compound: Cc1cc([C@@H](C)Nc2ccccc2C(=O)O)c2nc(N3CCOCC3)cc(=O)n2c1 [AZD6482] + CCNC(=O)c1noc(-c2cc(C(C)C)c(O)cc2O)c1-c1ccc(CN2CCOCC2)cc1 [Luminespib] (partner 0.01 µM)
# How it was run: as §1
# [4] = compound: Cc1cc([C@@H](C)Nc2ccccc2C(=O)O)c2nc(N3CCOCC3)cc(=O)n2c1 [AZD6482] + Cc1nc(NC(=O)N2CCC[C@H]2C(N)=O)sc1-c1ccnc(C(C)(C)C(F)(F)F)c1 [Alpelisib] (partner 2 µM)
# How it was run: as §1
Cell Line,relative viability ([1]; first compound 0.2 µM),relative viability ([1]; first compound 0.6325 µM),relative viability ([1]; first compound 2 µM),relative viability ([1]; first compound 6.325 µM),relative viability ([2]; first compound 0.2 µM),relative viability ([2]; first compound 0.6325 µM),relative viability ([2]; first compound 2 µM),relative viability ([2]; first compound 6.325 µM),relative viability ([3]; first compound 0.08 µM),relative viability ([3]; first compound 0.253 µM),relative viability ([3]; first compound 0.8 µM),relative viability ([3]; first compound 2.53 µM),relative viability ([3]; first compound 8 µM),relative viability ([4]; first compound 0.08 µM),relative viability ([4]; first compound 0.253 µM),relative viability ([4]; first compound 0.8 µM),relative viability ([4]; first compound 2.53 µM),relative viability ([4]; first compound 8 µM)
NCI-H1975,1.2,1.18,1.21,1.05,0.414,0.431,0.411,0.389,0.171,0.272,0.17,0.162,0.224,0.475,0.439,0.521,0.373,0.362
NCI-H1993,0.919,0.97,1.04,0.991,0.528,0.442,0.528,0.501,0.509,0.711,0.737,0.571,0.616,0.701,0.653,,,0.767
NCI-H2009,1.22,1.17,1.2,1.15,0.471,0.447,0.56,0.385,1.04,1.11,1.08,0.771,0.963,0.936,1.15,1.04,0.484,0.985
NCI-H2023,1.02,1.01,1.03,0.616,0.424,0.414,0.498,0.272,0.603,0.574,0.795,0.518,0.324,0.389,0.427,0.449,0.267,0.32
NCI-H2085,1.03,1.12,1.27,0.981,0.776,0.743,0.786,0.641,0.36,0.194,0.22,0.22,0.346,0.426,0.409,0.351,0.34,0.409
NCI-H2087,1.06,0.933,1.28,0.854,0.413,0.439,0.48,0.393,0.183,0.161,0.213,,0.16,0.953,1.06,1.17,0.819,0.972
NCI-H2126,0.847,0.777,0.804,0.81,0.493,0.601,0.538,0.472,0.933,0.836,0.841,0.373,0.68,0.608,0.569,0.606,0.476,0.559
NCI-H2170,0.707,0.577,0.494,0.582,0.402,0.407,0.425,0.387,0.712,0.508,0.697,0.485,0.521,0.662,0.666,0.713,0.56,0.681
NCI-H2228,0.703,0.742,0.797,0.415,0.271,0.298,0.224,0.141,,0.119,0.118,0.115,0.169,0.477,0.589,0.578,0.397,0.539
NCI-H2347,0.764,0.771,0.873,0.693,0.399,0.447,0.555,0.408,0.329,0.231,0.583,0.27,0.281,,0.743,0.891,0.514,0.719
NCI-H2405,0.829,0.826,0.84,0.728,0.425,0.444,0.421,0.371,0.367,,0.612,0.261,0.385,0.354,,0.603,0.384,0.556
NCI-H3122,1.01,1.02,1.05,0.992,0.403,0.363,0.401,0.331,0.094,0.0817,0.108,0.0814,0.0719,0.696,0.717,0.754,0.394,0.677
PC-3 [JPC-3],0.89,0.815,0.775,0.741,0.484,0.499,0.488,0.521,0.634,0.689,0.655,0.509,0.588,0.855,0.997,0.983,0.877,0.97
PC-14,1,0.93,1.14,0.882,0.584,0.703,0.527,0.265,0.156,0.16,0.145,,0.142,0.857,0.882,0.832,0.663,0.807
RERF-LC-KJ,0.94,0.884,0.926,0.72,0.442,0.433,0.397,0.418,1.16,1.29,1.27,0.978,0.987,0.653,0.614,0.6,0.559,0.637
SK-LU-1,1.06,1,1.2,0.461,0.537,0.517,0.616,0.462,,0.189,0.203,0.145,0.168,,0.89,0.892,0.76,0.76
SK-MES-1,1.14,1.24,1.36,0.999,0.656,0.626,0.696,0.541,0.416,0.556,0.313,0.269,0.304,0.515,0.658,0.459,0.269,0.433
SW 1573,0.941,0.868,1.08,0.755,0.373,0.424,0.369,0.163,0.218,0.219,0.246,0.194,0.206,0.518,0.533,0.47,0.303,0.407
